Experiment [1] deals with expert panel members. Briefly: Sucrose Equivalent Value (SEV), perceived sweetness matched to stock sucrose solutions. Format: in vivo. Conditions: for SEV (%): 500 ppm potentiator alone in pH 3.2 buffered 5% sucrose solution; for effect on sweetness (SEV) of sucrose solutions, comparison of forms: 500 ppm in pH 3.2 buffered solutions with 0%, 3%, 5%, 7% and 9% sucrose; for effect on sweetness of sucrose solution (dose response curve): 0 to 1000 ppm in pH 3.2 buffered 5% sucrose solution. The procedure:
One method of measuring the perceived sweetness of a solution is to match it with a stock sucrose solution of known concentration. In the present experiments, the compound of interest is added at a predetermined concentration to a pH 3.2 buffered solution containing 5% sucrose. A number of expert panel members then taste the solution and compare it to a battery of stock sucrose solutions ranging from 3% to 15% at increments of 1%. Each panel member decides which sucrose solution is equisweet with the solution containing the compound of interest. The mean value is then reported as the SEV. Results are reported to 1 decimal place.
In accordance with this methodology, 3-HB was added to a pH 3.2 buffered solution containing 5% sucrose to produce solutions containing from 0 to 1000 ppm 3-HB in 100 ppm increments. […] From FIG. 1 it is apparent that as the dosage of 3-HB increases so does the sweetness of the resultant solution. However the effect is non-linear with each incremental addition having a diminishing effect. The maximum sweetness attainable would appear to be about 7.9% SEV (based on a 5% sucrose solution).
The same methodology as described in Example 7 was repeated with 2,4-DHB in place of 3-HB, to produce the dose response curve for 2,4-DHB (FIG. 2). […] The maximum attainable sweetness would appear to be about 6.7% SEV (based on a 5% sucrose solution).
500 ppm of a sweetener potentiator was added to a pH 3.2 buffered solution containing 5% sucrose and the SEV of the resultant solution determined.
500 ppm of the sweetener potentiator then was added to a 5% sucrose solution containing 500 ppm 3-HB to produce a series of solutions. […] The use of 500 ppm of 3-HB alone results in an SEV of 6.9% whereas in all cases but two (2,4-DHB and 3,4-DHB) the addition of a second sweetener potentiator results in a little change or even a decrease in SEV. This is highly surprising considering that all of the potentiators are shown to have SEVs greater than 5%.
The methodology was repeated to produce a series of solutions containing 500 ppm 2,4-DHB and 500 ppm of a second sweetener potentiator.
500 ppm of 3-HB, 500 ppm of 2,4-DHB and 500 ppm of 3,4-dihydroxybenzoic acid (3,4-DHB) were added to a pH 3.2 buffered solution containing 5% sucrose and the SEV determined. The results are shown in FIG. 7 together with other combinations of 3-HB, 2,4-DHB and 3,4-DHB for comparison. The solution containing the combination of 3-HB and 2,4-DHB (hatched) has a much higher SEV (8.7%) than the combination of either 3,4-DHB and 3-HB (7.6%) or the combination of 3,4-DHB and 2,4-DHB (6.8%). The three-way combination of the embodiment (hatched) is better still with an SEV of 9.8%.
pH 3.2 buffered solutions were prepared containing 0%, 3%, 5%, 7% and 9% sucrose. 500 ppm of 2,4-DHB acid, 500 ppm of the sodium salt of 2,4-DHB and 500 ppm of the potassium salt of 2,4-DHB were added individually to each of the sucrose solutions. The SEV for each of the solutions was then determined.
The SEV of each sweetener solution was then evaluated after the addition 500 ppm of 3-HB, the addition of 500 ppm of 2,4-DHB and the addition of both 500 ppm 3-HB and 2,4-DHB.
500 ppm of 3-aminobenzoic acid and 500 ppm of 4-aminobenzoic acid were individually added to separate pH 3.2 buffered solutions containing 5% sucrose and the SEVs of the resultant solutions were determined. The SEV of 3-aminobenzoic acid was about 7%, i.e., increased the sweetness intensity of 5% sucrose to about 7%. The SEV of 4-aminobenzoic acid was about 5.5-6%, i.e., increased the sweetness intensity of 5% sucrose to about 5.5-6%.

For experiment [2] the following is noted: cited from earlier work.

For `O=C(O)c1cc(O)c(O)c(O)c1` [3,4,5-THB, 3,4,5-tryhydroxybenzoic acid], the “SEV (%)” value in experiment [1] came out at 5.1%.
With `O=C([O-])c1ccc(O)cc1O.[K+]` [potassium salt of 2,4-DHB], the “effect on sweetness (SEV) of sucrose solutions, comparison of forms” value (“effect on sweetness (SEV)” below) in experiment [1] is given as “enhances the sweetness of the sucrose solution in every case”.
As for `O=C(O)c1ccc(O)cc1O` [2,4-DHB, 2,4-dihydroxybenzoic acid], the “effect on sweetness of 5% sucrose solution” value in experiment [2] (0.2% 2,4-DHB, Canadian Patent No. 1208966) is recorded as “increase in sweetness”. Moreover, the “effect on sweetness intensity of sucralose and aspartame” value in experiment [2] (FIGS. 1 and 2 and Tables 1 and 2 of U.S. Pat. No. 6,461,658) is recorded as “slightly inhibitory effect”. In addition, the “effect on sweetness delivery profile of sucralose” value in experiment [2] (U.S. Pat. No. 6,461,658) is given as “significantly reducing the length of time during which sucralose sweetness is perceived”. Besides, the “effect on sweetness with aspartame” value in experiment [2] (WO99/15032) was “increase sweetness synergistically”. In addition, in experiment [1], the “effect on sweetness of sucrose solution (dose response curve)” value is listed as “enhances the sweetness of the sucrose solution” and the “effect on sweetness (SEV)” value is listed as “enhances the sweetness of the sucrose solution in every case”.
For the molecule `O=C([O-])c1ccc(O)cc1O.[Na+]` [sodium salt of 2,4-DHB], the “effect on sweetness (SEV)” value in experiment [1] is reported as “enhances the sweetness of the sucrose solution in every case”.
For `O=C(O)c1ccc(O)c(O)c1` [3,4-DHB, 3,4-dihydroxybenzoic acid], the “SEV (%)” value in experiment [1] stood at 6.4%.
As for `O=C(O)c1cccc(O)c1` [3-HB, 3-hydroxybenzoic acid], in experiment [1], the “effect on sweetness of sucrose solution (dose response curve)” value was “enhances the sweetness of the sucrose solution”. Besides, the “effect on sweetness of saccharin solution” value in experiment [1] (500 ppm, pH 3.2 saccharin solution of SEV about 5%) is given as “enhances the sweetness to a greater degree alone than in combination with 2,4-DHB”.

The record behind these values is patent US7851000B2, “Taste potentiator compositions and edible confectionery and chewing gum products containing same” (Cadbury Adams USA LLC, priority 2005, dated 2010).
